This passage reports Ki results from patent US20080221116A1, “ISOXAZOLINE ALPHA 1a/1d ADRENORECEPTOR ANTAGONISTS” (priority 2006, published 2008).

Structures are written as SMILES. pKi: −log10 of the molar value. Values joined by “and” are separate entries in the source; they are usually repeats but may differ in a detail not shown here. Equal values may be shown once. Read-outs that look alike come from different tables or passages of the source.

Holding throughout (details): COS-7 membranes
Assay [1] has as its target T1, α1a-AR (Homo sapiens, UniProt P35348).
T1 construct: expressed in transfected cells; host or cells: COS-7 cells (African Green monkey kidney), membranes
T1 sequence (P35348 1-466): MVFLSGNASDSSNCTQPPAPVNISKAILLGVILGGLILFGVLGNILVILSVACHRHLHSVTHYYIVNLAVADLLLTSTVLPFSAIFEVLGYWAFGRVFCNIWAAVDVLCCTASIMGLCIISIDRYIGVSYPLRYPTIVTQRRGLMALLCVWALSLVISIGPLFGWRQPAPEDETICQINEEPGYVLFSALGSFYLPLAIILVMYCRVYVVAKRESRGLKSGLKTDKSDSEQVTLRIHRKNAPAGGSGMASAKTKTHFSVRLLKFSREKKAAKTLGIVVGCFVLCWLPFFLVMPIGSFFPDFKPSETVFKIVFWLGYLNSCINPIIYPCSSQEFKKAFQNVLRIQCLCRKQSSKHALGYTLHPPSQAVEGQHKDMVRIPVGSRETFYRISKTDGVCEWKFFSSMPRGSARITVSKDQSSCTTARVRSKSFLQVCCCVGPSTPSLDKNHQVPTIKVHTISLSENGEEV
Kind of assay: α1-Adrenergic Receptor Binding Assay, 125I-HEAT radio-ligand binding, transfected COS-7 cell membranes, α1a subtype. How it is done:
(§1) Membranes were prepared from COS-7 cells (African Green monkey kidney SV40-transformed cells) that had been transfected with one of the three α1-AR subtypes by the following method: COS cells from ten 100 mm tissue culture plates were scraped into a 5 ml volume of TE (a mixture of 50 mM tris(hydroxymethyl)aminomethane hydrochloride (Tris-HCl) and 5 mM ethylenediaminetetraacetic acid (EDTA) at pH 7.4). The cell suspension was disrupted with a Brinkman Polytron (at a setting of 8) for 10 sec. The disrupted cells were centrifuged at 1000×g for 10 min at 4° C. Supernatants were centrifuged at 34,500×g for 20 min at 4° C. The membrane pellets were suspended in a 2 ml volume of TNE (a mixture of 50 mM Tris-HCl, 5 mM EDTA and 150 mM NaCl at pH7.4). An aliquot of the membrane suspension was stored at −70° C. until use. The protein concentration was determined using a BioRad “DC” protein assay kit following membrane solubilization with Triton X-100.
(§2) Triplicate determinations of radio-ligand binding in the presence of increasing concentrations of testing compound were made. The reagents were added to 96-well polypropylene plate wells. Each assay well contained 140 μL TNE, 25 μL 125′-2-(β-4-hydroxyphenyl)ethylaminomethyltetralone (^125I-HEAT) (specific activity 2200 Ci/mmol, Dupont-New England Nuclear, […] final), 10 μL testing compound dissolved in dimethyl sulfoxide (DMSO) ([…] to 10 μM in half-log increments, final), and 25 μL appropriate α1-AR membrane subtype suspension in TNE (0.5 ng/μL for the α1a and α1b subtypes and 13 ng/μL for the α1d subtype). The plate was incubated at rt for 1 hr. The contents of the wells were filtered through a glass filter (type C) (GF/C) membrane Unifilter plate (Packard Instruments) using the Packard Filtermate cell harvester. The filter plates were dried in a vacuum oven for 30 min at 40° C. 25 μL Microscint 20 liquid scintillation fluid (Packard Instuments) was added to each well. The radioactive content was analyzed in the TopCount microplate scintillation counter (Packard Instruments).
(§3) The Ki values (in nM) shown in Table 1 were determined using GraphPad Prism software.

For assay [2], the target named is T2, α1b-AR (Homo sapiens, UniProt P35368).
T2 construct: expressed in transfected cells; host or cells: COS-7 cells (African Green monkey kidney), membranes
T2 sequence (P35368 1-520): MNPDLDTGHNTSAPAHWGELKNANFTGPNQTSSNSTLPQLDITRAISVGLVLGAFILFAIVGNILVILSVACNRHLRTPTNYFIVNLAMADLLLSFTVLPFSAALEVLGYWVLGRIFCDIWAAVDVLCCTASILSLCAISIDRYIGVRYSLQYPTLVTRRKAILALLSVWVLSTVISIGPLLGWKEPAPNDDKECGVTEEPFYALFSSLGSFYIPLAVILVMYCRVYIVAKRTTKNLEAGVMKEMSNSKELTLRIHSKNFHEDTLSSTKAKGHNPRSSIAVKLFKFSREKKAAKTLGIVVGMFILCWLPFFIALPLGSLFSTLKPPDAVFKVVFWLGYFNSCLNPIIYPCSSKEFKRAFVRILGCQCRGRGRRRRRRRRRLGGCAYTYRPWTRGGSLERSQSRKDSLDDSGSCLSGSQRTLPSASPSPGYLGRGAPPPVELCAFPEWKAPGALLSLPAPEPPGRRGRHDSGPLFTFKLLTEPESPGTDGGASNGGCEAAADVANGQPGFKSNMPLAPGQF
Put plainly: α1-Adrenergic Receptor Binding Assay, 125I-HEAT radio-ligand binding, transfected COS-7 cell membranes, α1b subtype. How it is done:
as §1, §2, §3

Assay [3] deals with T3, α1d-AR (Homo sapiens, UniProt P25100).
T3 construct: expressed in transfected cells; host or cells: COS-7 cells (African Green monkey kidney), membranes
T3 sequence (P25100 1-572): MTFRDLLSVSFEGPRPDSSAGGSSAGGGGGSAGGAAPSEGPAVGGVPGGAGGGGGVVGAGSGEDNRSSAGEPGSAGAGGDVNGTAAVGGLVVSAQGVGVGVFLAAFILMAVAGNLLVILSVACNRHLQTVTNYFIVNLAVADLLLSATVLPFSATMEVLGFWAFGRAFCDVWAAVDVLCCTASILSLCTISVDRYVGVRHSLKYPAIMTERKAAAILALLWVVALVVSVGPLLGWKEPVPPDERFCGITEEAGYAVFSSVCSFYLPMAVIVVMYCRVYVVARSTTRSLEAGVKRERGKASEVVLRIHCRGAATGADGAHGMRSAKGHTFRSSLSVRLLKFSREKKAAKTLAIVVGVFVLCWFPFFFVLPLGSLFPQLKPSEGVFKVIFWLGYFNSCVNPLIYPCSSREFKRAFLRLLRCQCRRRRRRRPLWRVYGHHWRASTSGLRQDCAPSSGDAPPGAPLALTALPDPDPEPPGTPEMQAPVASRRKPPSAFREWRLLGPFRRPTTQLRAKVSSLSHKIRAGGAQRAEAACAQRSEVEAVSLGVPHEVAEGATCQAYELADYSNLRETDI
Kind of assay: α1-Adrenergic Receptor Binding Assay, 125I-HEAT radio-ligand binding, transfected COS-7 cell membranes, α1d subtype. The procedure: as §1, §2, §3

Setting [4] is: average value, read-out: Alpha 1 Ki α1a (1) Average Value.
Setting [5] is: individual values, read-out: Alpha 1 Ki α1a (2) Individual Values.
[6] abbreviates: average value, read-out: Alpha 1 Ki α1b (1) Average Value.
Where [7] appears, read: individual values, read-out: Alpha 1 Ki α1b (2) Individual Values.
The mark [8] stands for this setting: average value, read-out: Alpha 1 Ki α1d (1) Average Value.
[9] abbreviates: individual values, read-out: Alpha 1 Ki α1d (2) Individual Values.

As for `CC(C)Oc1ccccc1N1CCN(CC2CC(CN3CCCCC3=O)=NO2)CC1` (single isomer, unassigned) [Compound 2, 1-{(5R*)-5-[4-(2-isopropoxy-phenyl)-piperazin-1-ylmethyl]-4,5-dihydro-isoxazol-3-ylmethyl}-piperidin-2-one], the pKi in assay [1] (setting [4]) was 9.10; in assay [1] (setting [5]), 9.00 and 9.15 and 9.07 and 9.22; in assay [2] (setting [6]), 7.27; in assay [2] (setting [7]), 7.10 and 7.39 and 7.25 and 7.42; in assay [3] (setting [8]), 8.35; in assay [3] (setting [9]) it was 8.28 and 8.33 and 8.24 and 8.64.

In the case of `CC(C)Oc1ccccc1N1CCN(CC2CC(CN3CCCCC3=O)=NO2)CC1` (single isomer, unassigned) [Compound 3, 1-{(5S*)-5-[4-(2-isopropoxy-phenyl)-piperazin-1-ylmethyl]-4,5-dihydro-isoxazol-3-ylmethyl}-piperidin-2-one], the pKi is 8.60 in assay [1] (setting [4]); 8.60 in assay [1] (setting [5]); 6.67 in assay [2] (setting [6]); 6.67 in assay [2] (setting [7]); 7.70 in assay [3] (setting [8]); 7.70 in assay [3] (setting [9]).

Take `CC(C)Oc1ccccc1N1CCN(CC2CC(C(=O)N3CCc4ccccc43)=NO2)CC1` (single isomer, unassigned) [Compound 36, (2,3-dihydro-indol-1-yl)-{(5S*)-5-[4-(2-isopropoxy-phenyl)-piperazin-1-ylmethyl]-4,5-dihydro-isoxazol-3-yl}-methanone]: the negative-log Ki (pKi) in assay [1] (setting [4]) is 7.42; in assay [2] (setting [6]), 6.72; in assay [3] (setting [8]), 7.04.

`CC(C)Oc1ccccc1N1CCN(CC2CC(C(=O)N3CCc4ccccc43)=NO2)CC1` (single isomer, unassigned) [Compound 37, (2,3-dihydro-indol-1-yl)-{(5R*)-5-[4-(2-isopropoxy-phenyl)-piperazin-1-ylmethyl]-4,5-dihydro-isoxazol-3-yl}-methanone]: the pKi in assay [1] (setting [4]) was 9.27; in assay [1] (setting [5]) it was 9.27; in assay [2] (setting [6]), 7.43; in assay [2] (setting [7]), 7.43; in assay [3] (setting [8]), 9.55; in assay [3] (setting [9]), 9.55.

For `CC(C)Oc1ccccc1N1CCN(CC2CC(C(=O)N3CCC(Oc4ccccc4)CC3)=NO2)CC1` (single isomer, unassigned) [Compound 38, {(5R*)-5-[4-(2-isopropoxy-phenyl)-piperazin-1-ylmethyl]-4,5-dihydro-isoxazol-3-yl}-(4-phenoxy-piperidin-1-yl)-methanone], the negative-log Ki (pKi) is 6.88 in assay [1] (setting [4]); 6.88 in assay [1] (setting [5]); 6.19 in assay [2] (setting [6]); 6.19 in assay [2] (setting [7]); 7.26 in assay [3] (setting [8]); 7.26 in assay [3] (setting [9]).

For the molecule `CC(C)Oc1ccccc1N1CCN(CC2CC(C(=O)N3CCC(Oc4ccccc4)CC3)=NO2)CC1` (single isomer, unassigned) [Compound 39, {(5S*)-5-[4-(2-isopropoxy-phenyl)-piperazin-1-ylmethyl]-4,5-dihydro-isoxazol-3-yl}-(4-phenoxy-piperidin-1-yl)-methanone], the negative-log Ki (pKi) in assay [1] (setting [4]) was 8.80; in assay [1] (setting [5]), 8.85 and 8.74; in assay [2] (setting [6]), 6.66; in assay [2] (setting [7]), 6.65 and 6.68; in assay [3] (setting [8]), 8.07; in assay [3] (setting [9]), 7.98 and 8.17.

In the case of `CC(C)Oc1ccccc1N1CCN(CC2CC(C(=O)N3CCC(C(=O)c4ccc(F)cc4)CC3)=NO2)CC1` (single isomer, unassigned) [Compound 40, [4-(4-fluoro-benzoyl)-piperidin-1-yl]-{(5S*)-5-[4-(2-isopropoxy-phenyl)-piperazin-1-ylmethyl]-4,5-dihydro-isoxazol-3-yl}-methanone], the pKi is 8.19 in assay [1] (setting [4]); 8.19 in assay [1] (setting [5]); 6.27 in assay [2] (setting [6]); 6.27 in assay [2] (setting [7]); 8.34 in assay [3] (setting [8]); 8.34 in assay [3] (setting [9]).

Turning to `CC(C)Oc1ccccc1N1CCN(CC2CC(C(=O)N3CCC(C(=O)c4ccc(F)cc4)CC3)=NO2)CC1` (single isomer, unassigned) [Compound 41, [4-(4-fluoro-benzoyl)-piperidin-1-yl]-{(5R*)-5-[4-(2-isopropoxy-phenyl)-piperazin-1-ylmethyl]-4,5-dihydro-isoxazol-3-yl}-methanone], the negative logarithm of the Ki (pKi) was 6.62 in assay [1] (setting [4]); 6.62 in assay [1] (setting [5]); 5.77 in assay [2] (setting [6]); 5.77 in assay [2] (setting [7]); 7.24 in assay [3] (setting [8]); 7.24 in assay [3] (setting [9]).

For `CC(C)Oc1ccccc1N1CCN(CC2CC(C(=O)N3CC(C)(C)c4cc(Br)ccc43)=NO2)CC1` (single isomer, unassigned) [Compound 42, (5-bromo-3,3-dimethyl-2,3-dihydro-indol-1-yl)-{(5R*)-5-[4-(2-isopropoxy-phenyl)-piperazin-1-ylmethyl]-4,5-dihydro-isoxazol-3-yl}-methanone], the pKi is 8.23 in assay [1] (setting [4]); 8.23 in assay [1] (setting [5]); 6.54 in assay [2] (setting [6]); 6.54 in assay [2] (setting [7]); 9.36 in assay [3] (setting [8]); 9.36 in assay [3] (setting [9]).

As for `CC(C)Oc1ccccc1N1CCN(CC2CC(C(=O)N3CC(C)(C)c4cc(Br)ccc43)=NO2)CC1` (single isomer, unassigned) [Compound 43, (5-bromo-3,3-dimethyl-2,3-dihydro-indol-1-yl)-{(5S*)-5-[4-(2-isopropoxy-phenyl)-piperazin-1-ylmethyl]-4,5-dihydro-isoxazol-3-yl}-methanone], the pKi in assay [1] (setting [4]) is 6.50; in assay [1] (setting [5]) it was 6.50; in assay [2] (setting [6]), 5.97; in assay [2] (setting [7]) it was 5.97; in assay [3] (setting [8]), 6.99; in assay [3] (setting [9]), 6.99.

In general, pKi refers to −log10 of the Ki, conventionally taken in molar units.
